The values below are quoted from earlier work in PMC8178945 (Computational and Structural Biotechnology Journal, 2021).

This series concerns the target 3CL^Pro. Conditions: read-out: KD from isothermal titration calorimetry; previously obtained. (In general: Isothermal titration calorimetry measures the heat released or taken up as one component is titrated into another.)

For the compound `O=c1cc(-c2ccccc2)oc2cc(O)c(O)c(O)c12` [baicalein], the Kd is 4.03 µM.
